Data on 12 compounds can be found in US12606533B2, “3-phenylpropylamine derivative” (DAIICHI SANKYO COMPANY, LIMITED, priority 2023, dated 2026).

One experiment has as its target T1, SF-1 (Homo sapiens, UniProt Q13285).
T1 construct: NCI-H295R SF-1-HiBiT cells with HiBiT tag knocked in at the endogenous SF1 locus; host or cells: NCI-H295R SF-1-HiBiT (knock-in at endogenous locus)
In words: SF1 degradation induction in NCI-H295R SF-1-HiBiT cells (HiBiT DC50). Type of experiment: cell-based. The conditions noted are these: 24 hr, concentration that induces 50% degradation of SF-1. The procedure:
NCI-H295R SF-1-HiBiT cells were seeded in a 384-well plate (Thermo Fisher Scientific Inc.) at 1×10^4 cells/50 μL/well and cultured at 37° C. in a 5% CO2 incubator for 24 hr. DMSO solutions of each compound were serially diluted with DMSO using a D300e Digital Dispenser (TECAN), added to a 384-well plate, and cultured in a 5% CO2 incubator at 37° C. for 24 hr. […] After completion of culture, the medium was discarded, and Nano-Glo (registered trade mark) HiBiT Lytic Detection System (Promega, Cat. No. N3040) was added at 20 μL/well and stirred with a plate mixer. Luminescence signals were then detected using a multimode plate reader (EnVision Xcite, PerkinElmer). The SF-1 protein degradation rate was calculated from the amount of luminescence (C) in the compound-free group and the amount of luminescence (T) in the compound-added group, based on the following formula.
The obtained data was analyzed using GraphPad Prism9 (GraphPad Software Inc.) or Genedata Screener (Genedata AG) to calculate the concentration that induces 50% degradation of SF-1 (DC50 value).
Background: HiBiT is a short tag that completes a luciferase, so light tracks the accessible tagged protein.

For a further experiment, the system named is NCI-H295R cells. As to the kind of experiment: Proliferation inhibitory action on NCI-H295R (CellTiter-Glo, 7 days). Type of experiment: cell-based, human. The conditions noted are these: Homo sapiens, NCI-H295R, 168 h. Here is the method:
DMSO solutions of each compound were serially diluted with DMSO using a D300e Digital Dispenser (TECAN), and added to a 384-well plate (Thermo Fisher Scientific Inc.). NCI-H295R cells were seeded in a 384-well plate at 2×10^3 cells/40 μL/well and cultured for 7 days in a 37° C., 5% CO2 incubator. […] On the first day of culture (day 0) and the seventh day of culture (day 7), 10 μL/well of CellTiter-Glo (registered trademark) 2.0 Assay (Promega) was added, and the luminescence signal was detected using a multimode plate reader (EnVision, PerkinElmer). The cell proliferation rate was calculated from the luminescence amount on the day of compound addition (CO), the luminescence amount of the compound-free group after 7 days of culture (C7), and the luminescence amount of the compound-added group (T7), based on the following formula.

As to `COc1ccc([C@]2(CCN(Cc3ccc(C4=CC[C@H](C(=O)N5CC(Nc6ccc7c8c6CCCn8c(=O)n7C6CCC(=O)NC6=O)C5)CC4)c(F)c3)CC(C)(C)C(F)(F)F)CCOC(C)(C)C2)cc1` (stereo partly drawn) [BW3, 3-{7-[(1-{[(4R)-2′-Fluoro-4′-{[{2-[(4R)-4-(4-methoxyphenyl)-2,2-dimethyltetrahydro-2H-pyran-4-yl]ethyl}(3,3,3-trifluoro-2,2-dimethylpropyl)amino]methyl}-2,3,4,5-tetrahydro[biphenyl]-4-yl]carbonyl}azetidin-3-yl)amino]-2-oxo-5,6-dihydro-4H-imidazo[4,5,1-ij]quinolin-1(2H)-yl}piperidine-2,6-dione], the DC50 – broadly, the midpoint of the concentration-degradation curve – on SF-1 was 9.1 nM. The GI50 (usually the concentration that inhibits growth by half) in the experiment on NCI-H295R cells is 86 nM.

With `COc1ccc([C@]2(CCN(Cc3ccc(C4=CC[C@H](CN5CCN(C(=O)c6ccc7c8c6NCCn8c(=O)n7[C@H]6CCC(=O)NC6=O)CC5)CC4)cc3)CC(C)(C)C(F)(F)F)CCOC(C)(C)C2)cc1` [CE1, (3S)-3-{7-[(4-{[(4R)-4′-{[{2-[(4R)-4-(4-Methoxyphenyl)-2,2-dimethyltetrahydro-2H-pyran-4-yl]ethyl)(3,3,3-trifluoro-2,2-dimethylpropyl)amino]methyl}-2,3,4,5-tetrahydro[biphenyl]-4-yl]methyl}piperazin-1-yl)carbonyl]-2-oxo-5,6-dihydro-4H-imidazo[1,5,4-de]quinoxalin-1(2H)-yl}piperidine-2,6-dione], on SF-1, the DC50 worked out at 4.3 nM. This compound also returned a concentration for 50% growth inhibition (GI50) in the experiment with NCI-H295R cells of 70 nM.

Regarding `Cn1c(=O)n(C2CCC(=O)NC2=O)c2ccc(C(=O)N3CCN(CC4CC=C(c5ccc(CN(CC[C@@]6(c7ccc(OC(F)F)cc7)CCOC(C)(C)C6)CC(C)(C)C(F)(F)F)cc5)CC4)CC3)cc21` (stereo partly drawn) [AM10, 3-[5-({4-[(4′-{[(2-{(4R)-4-[4-(Difluoromethoxy)phenyl]-2,2-dimethyltetrahydro-2H-pyran-4-yl}ethyl) (3,3,3-trifluoro-2,2-dimethylpropyl)amino]methyl}-2,3,4,5-tetrahydro[biphenyl]-4-yl)methyl]piperazin-1-yl}carbonyl)-3-methyl-2-oxo-2,3-dihydro-1H-benzimidazol-1-yl]piperidine-2,6-dione], the DC50 on SF-1 worked out at 7.3 nM. This compound also yielded a GI50 in the experiment with NCI-H295R cells of 106 nM.

`COc1ccc([C@]2(CCN(Cc3ccc4nn(C5CC6(CCN(CC(=O)Nc7ccc8c(c7)n(C)c(=O)n8C7CCC(=O)NC7=O)CC6)C5)cc4c3)CC(C)(C)C(F)(F)F)CCOC(C)(C)C2)cc1` (stereo partly drawn) [AZ8, N-[1-(2,6-Dioxopiperidin-3-yl)-3-methyl-2-oxo-2,3-dihydro-1H-benzimidazol-5-yl]-2-[2-(5-{[{2-[(4R)-4-(4-methoxyphenyl)-2,2-dimethyltetrahydro-2H-pyran-4-yl]ethyl}(3,3,3-trifluoro-2,2-dimethylpropyl)amino]methyl}-2H-indazol-2-yl)-7-azaspiro[3.5]nonan-7-yl]acetamide] showed a DC50 at SF-1 of 7 nM. The GI50 with NCI-H295R cells came to 28 nM.

As to `COc1ccc([C@]2(CCN(Cc3ccc(C4=CC[C@H](CN5CCN(C(=O)c6ccc7c(c6)n(C)c(=O)n7[C@@H]6CCC(=O)NC6=O)CC5)CC4)cc3)CC(C)(C)C(F)(F)F)CCOC(C)(C)C2)cc1` [AO7, (3R)-3-{5-[(4-{[(4R)-4′-{[{2-[(4R)-4-(4-Methoxyphenyl)-2,2-dimethyltetrahydro-2H-pyran-4-yl]ethyl}(3,3,3-trifluoro-2,2-dimethylpropyl)amino]methyl}-2,3,4,5-tetrahydro[biphenyl]-4-yl]methyl}piperazin-1-yl)carbonyl]-3-methyl-2-oxo-2,3-dihydro-1H-benzimidazol-1-yl}piperidine-2,6-dione], half-maximal degradation on SF-1 (DC50) was put at 5.4 nM. In the experiment on NCI-H295R cells, this compound came in with a GI50 of 39 nM.

The compound `COc1ccc([C@]2(CCN(Cc3ccc(C4=CCC(C(=O)N5CCC(N(C)c6ccc7c8c6CCCn8c(=O)n7C6CCC(=O)NC6=O)CC5)CC4)c(F)c3)CC(C)(C)C(F)(F)F)CCOC(C)(C)C2)cc1` (stereo partly drawn) [BH5, 3-{7-[{1-[(2′-Fluoro-4′-{[{2-[(4R)-4-(4-methoxyphenyl)-2,2-dimethyltetrahydro-2H-pyran-4-yl]ethyl}(3,3,3-trifluoro-2,2-dimethylpropyl)amino]methyl}-2,3,4,5-tetrahydro[biphenyl]-4-yl)carbonyl]piperidin-4-yl}(methyl)amino]-2-oxo-5,6-dihydro-4H-imidazo[4,5,1-ij]quinolin-1(2H)-yl}piperidine-2,6-dione] had a half-maximal degradation concentration (DC50) on SF-1 of 7.7 nM. In the experiment with NCI-H295R cells, this compound returned a GI50 of 79 nM.

`COc1ccc(C2(CCN(Cc3ccc(OC4CCN(CC(=O)Nc5cccc6c5n(C)c(=O)n6C5CCC(=O)NC5=O)CC4)cc3)CC(C)(C)C(F)(F)F)CCC(F)(F)CC2)cc1` (stereo not drawn) [Example AB6, 2-[4-(4-{[{2-[4,4-Difluoro-1-(4-methoxyphenyl)cyclohexyl]ethyl}(3,3,3-trifluoro-2,2-dimethylpropyl)amino]methyl}phenoxy)piperidin-1-yl]-N-[1-(2,6-dioxopiperidin-3-yl)-3-methyl-2-oxo-2,3-dihydro-1H-benzimidazol-4-yl]acetamide]: half-maximal degradation at SF-1 (DC50) was put at 29 nM. Further, the GI50 in the experiment on NCI-H295R cells is 165 nM.

With `COc1ccc([C@]2(CCN(Cc3ccc(C4=CCC(C(=O)N5CCN(Cc6ccc7c(c6)n(C)c(=O)n7C6CCC(=O)NC6=O)CC5)CC4)cc3F)CC(C)(C)C(F)(F)F)CCOC(C)(C)C2)cc1` (stereo partly drawn) [AT3, 3-[5-({4-[(3′-Fluoro-4′-{[{2-[(4R)-4-(4-methoxyphenyl)-2,2-dimethyltetrahydro-2H-pyran-4-yl]ethyl}(3,3,3-trifluoro-2,2-dimethylpropyl)amino]methyl}-2,3,4,5-tetrahydro[biphenyl]-4-yl)carbonyl]piperazin-1-yl}methyl)-3-methyl-2-oxo-2,3-dihydro-1H-benzimidazol-1-yl]piperidine-2,6-dione], on SF-1, it took 7.7 nM to reach half-maximal degradation (DC50). Besides, in the experiment on NCI-H295R cells, it took 45 nM to inhibit growth by half (GI50).

`COc1ccc([C@]2(CCN(Cc3ccc(OC4CCN(CC(=O)Nc5cccc6c5n(C)c(=O)n6C5CCC(=O)NC5=O)CC4)cc3)CC(C)(C)C(F)(F)F)CCOC(C)(C)C2)cc1` (stereo partly drawn) [Example Z8, N-[1-(2,6-Dioxopiperidin-3-yl)-3-methyl-2-oxo-2,3-dihydro-1H-benzimidazol-4-yl]-2-[4-(4-{[{2-[(4R)-4-(4-methoxyphenyl)-2,2-dimethyltetrahydro-2H-pyran-4-yl]ethyl)(3,3,3-trifluoro-2,2-dimethylpropyl)amino]methyl}phenoxy)piperidin-1-yl]acetamide] showed a DC50 at SF-1 of 10 nM. The GI50 in the experiment on NCI-H295R cells was determined as 43 nM.

On SF-1, `COc1ccc([C@]2(CCN(Cc3ccc(C4=CCC(CN5CCN(C(=O)c6cc7c(cn6)n(C6CCC(=O)NC6=O)c(=O)n7C)CC5)CC4)cc3)CC(C)(C)C(F)(F)F)CCOC(C)(C)C2)cc1` (stereo partly drawn) [BJ6, 3-[6-({4-[(4′-{[{2-[(4R)-4-(4-Methoxyphenyl)-2,2-dimethyltetrahydro-2H-pyran-4-yl]ethyl}(3,3,3-trifluoro-2,2-dimethylpropyl)amino]methyl}-2,3,4,5-tetrahydro[biphenyl]-4-yl)methyl]piperazin-1-yl}carbonyl)-1-methyl-2-oxo-1,2-dihydro-3H-imidazo[4,5-c]pyridin-3-yl]piperidine-2,6-dione] returned a DC50 of 17 nM. Further, halving of growth with NCI-H295R cells (GI50) required 97 nM.

`COc1ccc([C@]2(CCN(Cc3ccc(C4=C(F)CC(C(=O)N5CCN(Cc6ccc7c8c6CCCn8c(=O)n7C6CCC(=O)NC6=O)CC5)CC4)cc3)CC(C)(C)C(F)(F)F)CCOC(C)(C)C2)cc1` (stereo partly drawn) [BB7, 3-[7-({4-[(6-Fluoro-4′-{[{2-[(4R)-4-(4-methoxyphenyl)-2,2-dimethyltetrahydro-2H-pyran-4-yl]ethyl)(3,3,3-trifluoro-2,2-dimethylpropyl)amino]methyl}-2,3,4,5-tetrahydro[biphenyl]-4-yl)carbonyl]piperazin-1-yl}methyl)-2-oxo-5,6-dihydro-4H-imidazo[4,5,1-ij]quinolin-1(2H)-yl]piperidine-2,6-dione] had a DC50 at SF-1 of 9 nM. The compound further came in with a GI50 with NCI-H295R cells of 62 nM.

Consider `COc1ccc([C@]2(CCN(CC3CC=C(c4ccc(NC(=O)C5CC(Nc6ccc7c(c6)n(C)c(=O)n7C6CCC(=O)NC6=O)C5)c(F)c4)CC3)CC(C)(C)C(F)(F)F)CCOC(C)(C)C2)cc1` (stereo partly drawn) [BE5, 3-{[1-(2,6-Dioxopiperidin-3-yl)-3-methyl-2-oxo-2,3-dihydro-1H-benzimidazol-5-yl]amino}-N-(3-fluoro-4′-{[{2-[(4R)-4-(4-methoxyphenyl)-2,2-dimethyltetrahydro-2H-pyran-4-yl]ethyl}(3,3,3-trifluoro-2,2-dimethylpropyl)amino]methyl}-2′,3′,4′,5′-tetrahydro[biphenyl]-4-yl)cyclobutanecarboxamide], for which the DC50 at SF-1 came to 2.6 nM. Moreover, growth with NCI-H295R cells was halved (GI50) at 124 nM.
